This is an account of results in US8524778B2, “Biphenyl-4-yl-sulfonic acid arylamides and their use as therapeutic agents” (PIMCO 2664 Limited, priority 2007, dated 2013).

Entries after “also recorded” stand apart in the source; their conditions may differ. A value given as a limit tells only on which side of the number the result lay.

The test system of data set [1] is mouse collagen-induced arthritis model. Nature of the data set: Collagen-induced arthritis (CIA) model, joint inflammation scoring. It is filed as in vivo. The note with it: 10 mg/kg/day i.p. The procedure: Collagen-induced arthritis (CIA) was induced in 8-week old male DBA/1 mice, by intradermal injection of 100 μL of chicken collagen type II (2 mg/mL) suspended in complete Freund's adjuvant supplemented with 2 mg/mL devitalised M. Tuberculosis into the base of the tail. This will lead to joint inflammation in >80% of the animals within 4 weeks. Treatment with ABD455 (10 mg/kg/day, delivered in corn oil) was started when joint inflammation became apparent in the first animals (in this experiment 15 days after injection), and the experiment terminated 3 weeks later. For each animal the scores for all four joints were added (maximal score=12).

For data set [2], the system named is TNFα-stimulated phosphorylation of IκB. As to the kind of experiment: TNFα-stimulated phosphorylation of IκB in mouse macrophages (Western blot). The note with it: 10 μM and 25 μM, 1 hour pre-treatment, 5 minutes TNFα, FIG. 4. It is filed as cell-based. The procedure: (§1) Bone marrow cells were flushed out of the long bones of 3-5 month old mice, and cultured in 10 cm tissue culture dishes for three days in α-MEM supplemented with 10% FCS, antibiotics, and recombinant mouse M-CSF (100 ng/mL). The cells were then harvested by trypsinisation, and re-plated in 6 well-plates (3×10^5 cells per well) and cultured in medium as described above for 2 more days. Cells were then serum starved and pre-treated with test compounds for 1 hour, followed by 5 minutes stimulation with TNFα. After stimulation, the cells were washed in PBS and homogenized in lysis buffer containing PBS, 0.1% (w/v) sodium dodecyl sulphate (SDS), 0.5% (w/v) sodium deoxycholate, and 2% (v/v) protease inhibitor cocktail. The cell lysates were centrifuged as 12,000 g for 10 minutes at 4° C., and the supernatant was collected and protein concentration determined using a Bio-Rad protein assay kit. Aliquots of the cell lysate containing 50 μg protein per lane were run on a 10% denaturing acrylamide gel and blotted onto a nylon membrane. The membranes were washed in Tris buffered saline (TBS) and incubated overnight at 4° C. with the relevant primary antibodies (phospho-IκB and phospho-p42/44 Erk, Cell Signalling Technology, 1:1000 dilution). […]
(Immunoblotting shows a protein as a band on a membrane.)

Data set [3] can be described thus: In vivo pharmacokinetics: serum levels after oral dosage (HPLC/UV). The note with it: rat; for metabolic stability: oral 10 mg/kg, in vivo pharmacokinetics assay; for oral absorption (blood serum levels after oral administration): oral 10 mg/kg in corn oil, over 60 minutes, FIG. 1. The procedure: Absorption and metabolic stability were studied using an in vivo pharmacokinetics assay. Drug levels assessed using HPLC/UV.
Following overnight starvation, male Wistar rats (250 g) were given a bolus gavage of 500 μL of a solution of test compound in corn oil (5 mg/mL). Blood samples (1 mL, whole blood) were taken at various time intervals and the serum collected following centrifugation. Samples were frozen until required for analysis.
Ethyl acetate (4 mL) was added to the defrosted serum and the samples mixed for 20 minutes. Following centrifugation, the ethyl acetate layer was collected and evaporated under a stream of nitrogen. The residue was reconstituted in mobile phase and 20 μL injected onto the chromatogram.
Standard calibration curves were prepared for each of the test compounds and were linear in the range of 1 ng/mL to 250 ng/mL.
Mobile phase: 60% 25 mM ammonium acetate, pH 4; 40% acetonitrile.
Serum levels of the following compounds, following oral dosage (10 mg/kg) over the course of 60 minutes, were investigated in vivo in rats using an HPLC/UV detection system, as described above: […]

Data set [4] relates to TNFα-stimulated phosphorylation of p42/44 Erk. Nature of the data set: TNFα-stimulated phosphorylation of p42/44 Erk in mouse macrophages (Western blot). It is filed as cell-based. The note with it: 10 μM and 25 μM, 1 hour pre-treatment, 5 minutes TNFα, FIG. 5. The procedure:
as §1

Data set [5] deals with macrophage cell line J774. As to the kind of experiment: Alamar Blue macrophage J774 viability assay. It is filed as cell-based. The note with it: Mus musculus; J774 cells, 72 hours with compound, n=5; Biological Study 1 table. As for the experimental part:
The assays are based on the survival of the J774 macrophage cell line; macrophages are closely related to osteoclasts.
J774 cells were plated at 10^4 cells per well in 100 μL αMEM (α Modified Eagle Medium) in 96-well plates and grown overnight. The next day, test compounds were added to the cultures, and cultures were continued for another 72 hours. At the end of the culture period, cell survival was determined using an Alamar Blue assay as previously described (see, e.g., Nociari et al., 1998).
Alamar Blue is an oxidation-reduction sensitive indicator. The dye itself is in the oxidised state, which is blue and non-fluorescent. […] Thus the transformation from oxidised form to reduced form can be measured by fluorimetric or colourimetric means. For fluorescence measurements, 530-560 nm excitation and 590 nm emission wavelengths are typically used. For colourimetric measurements, absorbance is measured at 570 nm (reduced form) and 600 nm (oxidised form) are typically used. A simple calculation is performed to determine the relative quantities of the two species. […]
Briefly, Alamar Blue (Biosource International) was added undiluted to the each well (1:10 v/v, 10 μL). The plate was incubated at 37° C. for 3-4 hours and the fluorescence was measured at 590 nm, with a 25 nm bandwidth. […]

With `O=S(=O)(Nc1cccc(CO)c1)c1ccc(-c2ccc(Cl)cc2Cl)cc1` [ABD455, 2′,4′-Dichloro-biphenyl-4-sulfonic acid (3-hydroxymethyl-phenyl)-amide], the “effect on collagen-induced arthritis (in words)” value in data set [1] (10 mg/kg/day) was “fully reverse the effects of collagen-induced arthritis; also recorded: much more effective in reversing the effects of collagen-induced arthritis than ABD295”. The “sum of the joint inflammation scores (total joint score) of study group” value in data set [1] (after 21 days, n=10, untreated group 47, FIG. 2) is recorded as 3. The “effect on TNFα-stimulated phosphorylation of IκB” value in data set [2] was “completely block”. In data set [3], the metabolic stability entry is recorded as “good degree of metabolic stability”. Moreover, the “effect on TNFα-stimulated phosphorylation of p42/44 Erk” value in data set [4] was “completely block”.
On to `O=S(=O)(NCCCCO)c1ccc(-c2ccc(F)cc2)cc1` [ABD200, 4′-fluoro-biphenyl-4-sulfonic acid (4-hydroxybutyl)-amide, reference compound], for which, in data set [3], the “oral absorption (blood serum levels after oral administration)” value (shortened to “oral absorption”) was “not absorbed”.
For the molecule `O=S(=O)(Nc1cccc(CO)c1)c1ccc(-c2ccc(F)cc2F)cc1` [ABD456, 2′,4′-Difluoro-biphenyl-4-sulfonic acid (3-hydroxymethyl-phenyl)-amide], in data set [2], the “effect on TNFα-stimulated phosphorylation of IκB” value was “completely block”. The metabolic stability entry in data set [3] was “good degree of metabolic stability”. The “effect on TNFα-stimulated phosphorylation of p42/44 Erk” value in data set [4] is recorded as “completely block”.
On to `O=S(=O)(Nc1ccc(CO)c(CO)c1)c1ccc(-c2ccc(Cl)cc2Cl)cc1` [ABD550, N-(3,4-Bis(hydroxymethyl)phenyl)-2′,4′-dichlorobiphenyl-4-sulfonamide], for which, in data set [5], the IC50 stood at 1200 ± 500 nM.
On the same count and under the same terms, in the case of `O=[N+]([O-])c1ccccc1-c1ccc(S(=O)(=O)Nc2cccc(CO)c2)cc1` [ABD514, 2′-Nitro-biphenyl-4-sulfonic acid (3-hydroxymethyl-phenyl)-amide] it was above 4000 nM.
Turning to `CCc1cc(-c2ccc(F)cc2F)ccc1S(=O)(=O)NCCCCO` [ABD385, 2′,4′-difluoro-3-ethyl-biphenyl-4-sulfonic acid (4-hydroxybutyl)-amide, reference compound], the “oral absorption” value in data set [3] was “not absorbed”.
Consider `Cc1cc(S(=O)(=O)NCCCCO)ccc1-c1ccc(F)cc1F` [ABD295, 2′,4′-difluoro-2-methyl-biphenyl-4-sulfonic acid (4-hydroxy-butyl)-amide, reference compound], for which the “sum of the joint inflammation scores (total joint score) of study group” value in data set [1] (after 22 days, n=8, untreated group 29, FIG. 3) is 17. Also, in data set [3], the “oral absorption” value was “not absorbed”.

As usually defined, the IC50 is the concentration that inhibits the measured activity by half.
